Source: patent publication US4762848A, “1,3-thiazoles and their use as immunomodulators” (Hoechst Aktiengesellschaft, priority 1985, dated 1988)

Assays:
macrophages [1] = assay: Stimulation of macrophage activity (chemiluminescence), relative to the compound from Example 7; format: in vivo, NMRI mice; details: 100 mg/kg, 1 × i.p. day 0; relative to Example 7 = 100%
Procedure: (§1) This entailed investigation of the effect of the test substance obtained as in exemplary embodiment 7 on the stimulation of peritoneal macrophages in 6-8 week old NMRI mice. Female mice received the test substance in parenteral or oral doses of 25 mg/kg, 50 mg/kg, 100 mg/kg and 200 mg/kg. Buffered saline solution was administered to a control group. The mice were sacrificed three days after the injections, and the peritoneal macrophages of the animals were examined for their state of activation. The secretion of the lysosomal enzymes (β-galactosidase, β-glucuronidase and N-acetyl-β-D-glucosaminidase) was determined as one measure of macrophage activation. […] The level of oxidative metabolism in macrophages is taken as another measure of their state of activation. This activity is measured with the assistance of a biolumate by determination of the chemiluminescence.
(§2) For this purpose, either 3×10^6 macrophages were cultured with 1 ml of TC 199 culture medium in Petri dishes of diameter 30 mm or 10^6 macrophages were cultured with 100 μl of medium in round-bottomed polyethylene tubes (for determination of the chemiluminescence), with 5% CO2 and at 37° C.
(§3) After incubation for one hour, the cultures were washed to remove floating cells. The chemiluminescence (tube culture) was then determined directly, whereas the Petri dishes were incubated for a further 24 hours at 37° C. and then the enzyme and pinocytosis activities in the cultures were determined.
(§4) NMRI mice were treated with the compounds according to the invention as described in experiment 2.
(§5) The macrophage function (chemiluminescence and enzyme activity) was checked as a test to determine the immunostimulation.
(§6) It can be seen from the table that in comparison with macrophages from untreated animals, the chemiluminescence reaction of these cells was also greatly stimulated by all the test substances, and their content of lysosomal enzymes was markedly raised.

macrophages [2] = assay: Stimulation of macrophage activity (exocytosis / lysosomal enzyme activity), relative to the compound from Example 7; format: in vivo, NMRI mice; details: 100 mg/kg, 1 × i.p. day 0; relative to Example 7 = 100%
Procedure: as §1, §2, §3, §4, §5, §6

DTH reaction (SRBC) = assay: Stimulation of the DTH reaction, relative to the compound from Example 7; format: in vivo, NMRI mice; details: 1 × i.p. day 0, relative to Example 7 = 100%
Procedure: Either 10^6 or 10^9 red blood cells from sheep were administered intravenously to each animal in groups of 5 female NMRI mice weighing 18-20 g. Sheep erythrocytes are regarded in immunology as a standard test substance (antigen) for the induction of cellular and humoral immune reactions. In particular, this test provides information about the functioning of the T-cell-dependent component (T-helper cells) of the immune system. The test substance obtained as in exemplary embodiment 7 ([2-(3-carboxy-1-propylthio)-4 -methyl-1,3-thiazol-5-yl]acetic acid) was administered intraperitoneally and perorally, respectively, […], each animal received 2×10^8 sheep erythrocytes injected into the underside of the foot and, 24 hours later, the swelling of the foot was measured. The foot swelling is induced by a skin reaction of the delayed type (delayed type hypersensitivity, DTH) and is, as is known to the expert, a measure of the cellular immune response (Collins, F. M. and Mackaness, G. B., J. Immunol. 101, 830-845, 1968). The results compiled in Table 1 illustraste that there is an increase in the cellular immune response owing to the administration of the subst nce obtained according to the invention, for example after imnunization with 10^6 or 10^9 sheep erythrocytes. An optimum stimulation can be observed in this experimental design on administration of 20-40 mg/kg test substance.
NMRI mice were treated with the substances according to the invention as described in experiment 1.
The DTH reaction was checked as a test to determine the immunostimulation.
It can be seen from the table that the DTH reaction in the animals pretreated with the test substances is more pronounced than in the corresponding control animals.

Candida albicans = details: ketoconazole 70 mg/kg (d-1-6, p.o.) alone
Procedure: Female Balb/c mice (15/group) were infected intravenously with Candida albicans (10^6 cfu/mouse) (day 0). Three groups were formed: group 1 was treated with physiological saline solution, and group 2 received 70 mg/kg ketoconazole orally on 7 consecutive days (days -1-6). Group 3 received 10 intraperitoneal injections of 2 mg/kg test substance on days 3-30 (every 3rd day) in addition to ketoconazole. The number of animals which died was recorded each day, and the time at which 50% of the animals in each group had died (T50) was determined.

CSc1nc(C)c(CC(=O)O)s1 [Example 1, 2-Methylmercapto-4-methyl-1,3-thiazol-5-ylacetic acid]
Macrophage activity: Chemiluminescence, relative activity (macrophages [1]): 29%
Macrophage activity: Exocytosis, relative activity (macrophages [2]): 124%

O=C(O)CSc1scnc1C(=O)O [Example 15, 5-Carboxymethylthio-1,3-thiazol-4-ylcarboxylic acid]
Macrophage activity: Chemiluminescence, relative activity (macrophages [1]): 49%
Macrophage activity: Exocytosis, relative activity (macrophages [2]): 172%

O=C(O)CSc1nc(O)nn1-c1ccccc1 [Example 24, 1-Phenyl-3-hydroxy-1,2,4-triazol-5-ylmercaptoacetic acid]
Macrophage activity: Chemiluminescence, relative activity (macrophages [1]): 57%
Macrophage activity: Exocytosis, relative activity (macrophages [2]): 218%
DTH reaction (SRBC), relative activity (DTH reaction (SRBC); 100 mg/kg): 115%

O=C(O)CSc1nnc(SCC(=O)O)s1 [Example 25, 2,5-Dicarboxymethylthio-1,3,4-thiadiazole]
Macrophage activity: Chemiluminescence, relative activity (macrophages [1]): 26%
Macrophage activity: Exocytosis, relative activity (macrophages [2]): 186%
DTH reaction (SRBC), relative activity (DTH reaction (SRBC); 100 mg/kg): 115%

O=C(O)CCCSc1nnc(SCCCC(=O)O)s1 [Example 27, 2,5-Di(3-carboxy-1-propylthio)-1,3,4-thiadiazole]
Macrophage activity: Chemiluminescence, relative activity (macrophages [1]): 22%
Macrophage activity: Exocytosis, relative activity (macrophages [2]): 258%
DTH reaction (SRBC), relative activity (DTH reaction (SRBC); 20 mg/kg): 144%

Cc1nc(SCCCC(=O)O)sc1C(=O)O [Example 39]
Macrophage activity: Chemiluminescence, relative activity (macrophages [1]): 35%
Macrophage activity: Exocytosis, relative activity (macrophages [2]): 148%
DTH reaction (SRBC), relative activity (DTH reaction (SRBC); 100 mg/kg): 210%

CC(=O)N1CCN(c2ccc(OCC3COC(Cn4ccnc4)(c4ccc(Cl)cc4Cl)O3)cc2)CC1 (centres unmarked) [Ketoconazole, ketoconazole]
T50 (time at which 50% of the animals had died) (Candida albicans): 18 days
